Molecular target: Recombinant human IDO (Homo sapiens, UniProt P14902)
Test: Bridge-IT tryptophan fluorescence assay of human IDO-1 inhibition
Type: biochemical
Conditions: recombinant human IDO 7.5 nM, L-tryptophan
Outline: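 One variant ran L-Trp at 100 μM for 90 min at 37 °C. The other pre-incubated compound for 30 min at 25 °C, then ran 50 μM L-Trp for 60 min at 25 °C.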

Chain of Recombinant human IDO (P14902 whole entry): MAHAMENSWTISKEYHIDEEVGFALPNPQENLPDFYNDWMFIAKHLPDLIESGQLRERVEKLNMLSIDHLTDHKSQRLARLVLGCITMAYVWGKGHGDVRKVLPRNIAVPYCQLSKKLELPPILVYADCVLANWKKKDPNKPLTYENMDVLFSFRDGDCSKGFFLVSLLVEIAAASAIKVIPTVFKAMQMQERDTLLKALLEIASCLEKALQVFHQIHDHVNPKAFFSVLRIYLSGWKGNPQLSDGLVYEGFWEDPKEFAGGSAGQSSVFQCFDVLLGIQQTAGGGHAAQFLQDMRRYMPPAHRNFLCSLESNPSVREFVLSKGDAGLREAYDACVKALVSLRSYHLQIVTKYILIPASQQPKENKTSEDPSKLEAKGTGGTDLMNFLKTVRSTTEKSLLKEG

Row | SMILES | IC50
1 | CC(C)(O)C1CCC(F)(CCC2c3c(Cl)cccc3-c3cncn32)CC1 (mixture of isomers) [Compound 107a, 2-[4-(2-[6-chloro-5H-imidazo[4,3-a]isoindol-5-yl]ethyl)-4-fluorocyclohexyl]propan-2-ol] | > 1 µM
2 | COc1ccc2c(n1)C(CCC1(F)CCC(F)(F)CC1)n1cncc1-2 (single isomer, unassigned) [Compound 34b, 10-methoxy-7-[2-(1,4,4-trifluorocyclohexyl)ethyl]-4,6,9-triazatricyclo[6.4.0.0^[2,6]]dodeca-1(8),2,4,9,11-pentaene] | > 1 µM
3 | NC(=O)CC1CCC(F)(CCC2c3ccccc3-c3cncn32)CC1 (single isomer, unassigned) [Compound 112c, 2-[4-fluoro-4-[2-[5H-imidazo[4,3-a]isoindol-5-yl]ethyl]cyclohexyl]acetamide] | > 1 µM
4 | Fc1cccc2c1C(CCC1(F)CCOCC1)n1cncc1-2 (single isomer, unassigned) [Compound 95a, 6-fluoro-5-[2-(4-fluorooxan-4-yl)ethyl]-5H-imidazo[4,3-a]isoindole] | > 1 µM
5 | OC1CCC(F)(CCC2c3ncccc3-c3cncn32)CC1 (mixture of isomers) [Compound 7a, 4-fluoro-4-(2-{4,6,9-triazatricyclo[6.4.0.0^[2,6]]dodeca-1(8),2,4,9,11-pentaen-7-yl}ethyl)cyclohexan-1-ol] | > 1 µM
6 | CC(C)(C)C(=O)N1CCC(C(O)CC2c3ncccc3-c3cncn32)CC1 (single isomer, unassigned) [Compound 88c, 1-[4-[1-hydroxy-2-[4,6,9-triazatricyclo[6.4.0.0^[2,6]]dodeca-1(8),2,4,9,11-pentaen-7-yl]ethyl]piperidin-1-yl]-2,2-dimethylpropan-1-one] | > 1 µM
7 | COc1ccc2c(n1)C(CC(N)C1CCCCC1)n1cncc1-2 (single isomer, unassigned) [Compound 118c, 1-cyclohexyl-2-[10-methoxy-4,6,9-triazatricyclo[6.4.0.0^[2,6]]dodeca-1(8),2,4,9,11-pentaen-7-yl]ethan-1-amine] | > 1 µM
8 | COc1ccc2c(n1)C(CC(O)C1CCC3(CC1)CC3)n1cncc1-2 (single isomer, unassigned) [Compound 53c, 2-[10-methoxy-4,6,9-triazatricyclo[6.4.0.0^[2,6]]dodeca-1(8),2,4,9,11-pentaen-7-yl]-1-[spiro[2.5]octan-6-yl]ethan-1-ol] | > 1 µM

More lines, now with the values ahead:

Row | IC50 | SMILES
9 | > 1 µM | CC(C)[C@H](N)C(=O)N1CCC(F)(CCC2c3ccccc3-c3cncn32)CC1 (single isomer, unassigned) [Compound 89b]
10 | > 1 µM | CC(C)(O)C1CCC(F)(CCC2c3ccccc3-c3cncn32)CC1 (single isomer, unassigned) [Compound 61a, 2-[4-fluoro-4-[2-[5H-imidazo[4,3-a]isoindol-5-yl]ethyl]cyclohexyl]propan-2-ol]
11 | > 1 µM | FC1(CCC2c3c(Cl)cccc3-c3cncn32)CCCCC1 (single isomer, unassigned) [Compound 70a, 6-chloro-5-[2-(1-fluorocyclohexyl)ethyl]-5H-imidazo[4,3-a]isoindole]
12 | < 0.1 µM | CN(C)C(=O)C1CCC(F)(CCC2c3c(Cl)cccc3-c3cncn32)CC1 (single isomer, unassigned) [Compound 114b, 4-[2-[6-chloro-5H-imidazo[4,3-a]isoindol-5-yl]ethyl]-4-fluoro-N,N-dimethylcyclohexane-1-carboxamide]
13 | 0.1 to 1 µM | O=C(O)C1CCC(F)(CCC2c3c(F)cccc3-c3cncn32)CC1 (single isomer, unassigned) [Compound 80b, 4-fluoro-4-(2-[6-fluoro-5H-imidazo[4,3-a]isoindol-5-yl]ethyl)cyclohexane-1-carboxylic acid]
14 | 0.1 to 1 µM | OC(CC1c2ncccc2-c2cncn21)C1CCC2(CC1)CC2 (single isomer, unassigned) [Compound 29a, 1-[spiro[2.5]octan-6-yl]-2-[4,6,9-triazatricyclo[6.4.0.0^[2,6]]dodeca-1(8),2,4,9,11-pentaen-7-yl]ethan-1-ol]
15 | 0.1 to 1 µM | FC1(CCC2c3c(Cl)cccc3-c3cncn32)CCCCC1 (single isomer, unassigned) [Compound 70b, 6-chloro-5-[2-(1-fluorocyclohexyl)ethyl]-5H-imidazo[4,3-a]isoindole]

From US9771370B2, “Compounds for the inhibition of indoleamine-2,3-dioxygenase” (Merck Patent GmbH, priority 2014, dated 2017)
